{"source": "paper PMC5557808", "about": "(Nature Communications, 2017)", "target": "T1, MMP-8 (Homo sapiens, UniProt P22894)", "T1 construct": "purchased EMD Millipore Corporation (Billerica, MA)", "T1 sequence (P22894 101-467)": "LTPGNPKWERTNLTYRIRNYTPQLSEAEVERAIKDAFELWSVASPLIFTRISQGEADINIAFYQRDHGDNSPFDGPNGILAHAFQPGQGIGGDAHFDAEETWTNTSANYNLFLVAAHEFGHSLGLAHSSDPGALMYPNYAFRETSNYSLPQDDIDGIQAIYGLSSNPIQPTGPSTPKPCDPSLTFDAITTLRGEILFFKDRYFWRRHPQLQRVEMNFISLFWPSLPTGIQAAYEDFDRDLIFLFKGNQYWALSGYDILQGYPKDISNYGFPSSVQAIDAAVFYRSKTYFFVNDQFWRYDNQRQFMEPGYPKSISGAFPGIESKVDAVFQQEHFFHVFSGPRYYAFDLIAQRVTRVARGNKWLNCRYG", "test": "MMP-8 cleavage of soluble PCL conjugates (HPLC decrease of main peak)", "format": "biochemical", "conditions": "900 ng/mL MMP-8, 60 min; p < 0.001, t-test", "protocol": "Pro-MMPs (e.g., MMP-8, MMP-1, or MMP-9; used at 0.1 mg/mL and >100.0 mU/mg based on the manufacturer’s information) were activated with p-aminophenylmercuric acetate (APMA) (8). For that, a 10 mM stock solution of APMA was freshly prepared in 0.1 M NaOH and a 10:1 (v/v) ratio of the respective proenzyme and the APMA solution (MMP:APMA) was incubated for 3 h at 37 °C. The activity was confirmed using the MMP-8 detection kit (QuickZyme Biosciences, Leiden, the Netherlands). A stock solution (90 µg/mL) of the activated MMP was prepared (used for cleavage studies on the PCL or the fully assembled microparticle-PCL-tastant setup (sensor), in MMP-8 buffer (200 mM NaCl, 50 mM Tris-HCl, 5 mM CaCl2, 1 µM ZnCl2, 0.05% Brij 35 at pH 6.8–7.0). All MMP experiments are described in detail in the Supplementary Methods. […]\nin water ( v/v)) and eluent B (0.1 % TFA in 2:3 water-acetonitrile (v/v)) and a gradient from 33 to 80% elu ent B within 30 minutes. UV absorption was r ead at λ = 280 nm or 220 nm. After freezing the samples at -80 °C, fr eeze- drying was performed on a Christ Alpha 1 -4 de vi ce (Martin Christ Gefriertrocknungs anlagen, Osterode am Harz, G e r ma n y) at a desublimers ’ te mperature of - 60 ° C, pressure of 1.030 mbar and processing temperature of 19 °C.\nPro-MMPs (e. g. MMP -8, MMP -1 or MMP-9; adapted to 0.1 mg/mL and > 100.0 mU/mg based on manufacturer information and when appropriate) were activated with APMA 8. For that, a 10 mM stock solution of APMA in 0.1 M NaOH was freshly prepared and a 10:1 (v/v) ratio of the r especti ve proenzyme and APMA solution (MMP:APMA) was incubated for 3 h at 37 °C. The activity was conf ir med using the MMP-8 detection kit (Q uic kZ ym e® Biosciences, Leiden, Netherlands). A stock solution (90 µg/mL) of the activated MMP was prepared (used for cleavage studies on the pr ot eas e-cleavable linker (PCL; e.g. Figure 2) or the fully assemb led microparticle -PCL- t ast ant setup (sensor; e.g. Figure 3) , in MMP -8 buffer (200 mM NaCl, 50 mM Tris-H Cl, 5 mM C aC l2, 1 µM ZnCl2, 0.05 % Brij35 at pH 6.8- 7.0). A ll MMP -8 exp eriments wer e performed as follo ws. 25 µg of the sensor ( see chap ter : Peptide-coupling to beads (Sensor)) in 100 µL MMP-buffer or 1 mg of FP LC -purified and lyophilized PCL as described dissolved 2 mL M MP -buffer resulting in a final concentration of 0.5 mg/ mL substrate was used. […]\nFigure 2A , 3, 4B ). […]\n(sensor) in co mpar ison to negative controls (the negative controls for the PCL an d sensor exper i men ts were b y incubation without MMP under otherwise identical conditions). The relative d ecreas e of the PCL’s ma in peak was char act er ized by HPLC (PCL) or of the sensor’s fluorescence b y FACS (sensor) in comparison to control. […]", "note": "Where a SMILES comes first, the peptide text is derived from it. [ ]: non-standard residue; d: D form. The star is where a group is joined. X1 = CC[N+](CC)(CC(=O)Nc1c(C)cccc1C)Cc1cccc(C(=O)*)c1; Aha = [N-]=[N+]=NCC[C@H](N)C(=O)O", "data": [{"smiles": "CC[C@H](C)[C@H](NC(=O)CNC(=O)[C@H](CCC(N)=O)NC(=O)[C@@H]1CCCN1C(=O)CNC(=O)c1cccc(C[N+](CC)(CC)CC(=O)Nc2c(C)cccc2C)c1)C(=O)N[C@@H](C)C(=O)NCC(=O)N[C@@H](CCC(N)=O)C(=O)N[C@@H](CCN=[N+]=[N-])C(=O)N[C@@H](CCC(N)=O)C(=O)O", "note": "[ID #1c] (X1-GPQGIAGQ[Aha]Q-OH)", "values": [{"measurement": "Cleavage by MMP-8 compared with the PCL carboxyfluorescein conjugate (ID #1b)", "result": "significantly better"}]}]}
